The values that follow come from ChEMBL document CHEMBL5537115, “New broad-spectrum and potent antibacterial agents with dual-targeting mechanism: Promoting FtsZ polymerization and disrupting bacterial membranes” (Eur J Med Chem, 2024).

One may read the MIC as the smallest concentration in the dilution series that meets the test's criterion for growth inhibition.

In brackets after ≈: the same amount, converted by molar mass.

Holding throughout (assay type): functional
Experiment [1] concerns Acinetobacter baumannii. Briefly: Antibacterial activity against Acinetobacter baumannii ATCC19606 assessed as bacterial growth inhibition incubated for 20 hrs by CLSI based broth microdilution method. In general terms: Dilution methods test growth across graded concentrations, often in twofold steps.
Experiment [2] deals with Escherichia coli. As to the kind of experiment: Antibacterial activity against penicillin-susceptible Escherichia coli ATCC25922 assessed as bacterial growth inhibition incubated for 20 hrs by CLSI based broth microdilution method.
Experiment [3] has as its system Streptococcus pyogenes. As to the kind of experiment: Antibacterial activity against erythromycin-resistant Streptococcus pyogenes 2 clinical isolate assessed as bacterial growth inhibition incubated for 20 hrs by CLSI based broth microdilution method.
Experiment [4] concerns Enterococcus faecium. Briefly: Antibacterial activity against vancomycin-susceptible Enterococcus faecium ATCC19434 assessed as bacterial growth inhibition incubated for 20 hrs by CLSI based broth microdilution method.
Experiment [5] concerns Escherichia coli. Briefly: Antibacterial activity against wild-type Escherichia coli BW25113 assessed as bacterial growth inhibition incubated for 20 hrs by CLSI based broth microdilution method.
The subject of experiment [6] is Staphylococcus epidermidis. Briefly: Antibacterial activity against penicillin-resistant Staphylococcus epidermidis clinical isolate assessed as bacterial growth inhibition incubated for 20 hrs by CLSI based broth microdilution method.
In experiment [7] the test system is Bacillus pumilus. Briefly: Antibacterial activity against penicillin-susceptible Bacillus pumilus CMCC63202 assessed as bacterial growth inhibition incubated for 20 hrs by CLSI based broth microdilution method.
In experiment [8] the test system is Staphylococcus aureus. Briefly: Antibacterial activity against penicillin-resistant Staphylococcus aureus ATCC31007 assessed as bacterial growth inhibition incubated for 20 hrs by CLSI based broth microdilution method.
The test system of experiment [9] is Staphylococcus aureus. As to the kind of experiment: Antibacterial activity against Staphylococcus aureus clinical isolate assessed as bacterial growth inhibition incubated for 20 hrs by CLSI based broth microdilution method.
In experiment [10] the test system is Enterococcus faecium. As to the kind of experiment: Antibacterial activity against vancomycin-resistant Enterococcus faecium ATCC51559 assessed as bacterial growth inhibition incubated for 20 hrs by CLSI based broth microdilution method.
Experiment [11] relates to Klebsiella pneumoniae. Briefly: Antibacterial activity against Klebsiella pneumoniae ATCC BAA-1902 assessed as bacterial growth inhibition incubated for 20 hrs by CLSI based broth microdilution method.
In experiment [12] the test system is Enterococcus faecalis. As to the kind of experiment: Antibacterial activity against vancomycin-susceptible Enterococcus faecalis ATCC29212 assessed as bacterial growth inhibition incubated for 20 hrs by CLSI based broth microdilution method.
In experiment [13] the test system is Staphylococcus aureus. As to the kind of experiment: Antibacterial activity against methicillin-resistant Staphylococcus aureus ATCC43300 assessed as bacterial growth inhibition incubated for 20 hrs by CLSI based broth microdilution method.
For experiment [14], the system named is Bacillus subtilis. Briefly: Antibacterial activity against penicillin-susceptible Bacillus subtilis ATCC9372 assessed as bacterial growth inhibition incubated for 20 hrs by CLSI based broth microdilution method.
For experiment [15], the system named is Staphylococcus aureus. As to the kind of experiment: Antibacterial activity against erythromycin-susceptible Staphylococcus aureus ATCC25923 assessed as bacterial growth inhibition incubated for 20 hrs by CLSI based broth microdilution method.
The test system of experiment [16] is Streptococcus pyogenes. As to the kind of experiment: Antibacterial activity against erythromycin-susceptible Streptococcus pyogenes 1 assessed as bacterial growth inhibition incubated for 20 hrs by CLSI based broth microdilution method.
Experiment [17] concerns Enterococcus faecalis. Briefly: Antibacterial activity against vancomycin-resistant Enterococcus faecalis ATCC51299 assessed as bacterial growth inhibition incubated for 20 hrs by CLSI based broth microdilution method.

Take `CC(C)c1ccc(/C=C/c2cc(-c3ccc(C(C)(C)C)cc3)[n+](C)cc2-c2ccccc2)cc1.[I-]`: the MIC in [1] was determined as 1 µg/mL; in [2], 2 µg/mL; in [3], 2 µg/mL; in experiment [4], 1 µg/mL; in [5] it was 4 µg/mL; in [6], 1 µg/mL. The minimal inhibitory concentration (MIC) in experiment [7] was 0.25 µg/mL; in experiment [8] it was 1 µg/mL; in [9] it was 0.5 µg/mL; in [10] it was 1 µg/mL; in experiment [11], 8 µg/mL; in [12], 1 µg/mL. Further, the MIC in [13] turned out to be 0.25 µg/mL; in [14] it was 0.125 µg/mL; in [15] it was 0.125 µg/mL; in [16], 4 µg/mL; in experiment [17], 0.5 µg/mL.

Take `Cc1ccccc1-c1c[n+](C)c(-c2ccc(C(C)(C)C)cc2)cc1/C=C/c1ccc(F)cc1.[I-]`: the MIC in experiment [1] is 2 µg/mL; in experiment [2] it was 8 µg/mL; in [3], 2 µg/mL; in experiment [4], 1 µg/mL; in [5], 4 µg/mL; in experiment [6] it was 1 µg/mL. For the same molecule, the MIC in experiment [7] is 0.5 µg/mL; in experiment [8] it was 1 µg/mL; in [9], 0.25 µg/mL; in experiment [10], 1 µg/mL; in [11], 8 µg/mL; in experiment [12] it was 0.5 µg/mL. Besides, the MIC was 0.5 µg/mL in [13]; 0.5 µg/mL in [14]; 1 µg/mL in experiment [15]; 2 µg/mL in experiment [16]; 2 µg/mL in experiment [17].

Take `CCCOc1ccc(/C=C/c2cc(-c3ccc(C(C)(C)C)cc3)[n+](C)cc2-c2ccccc2)cc1.[I-]`: the MIC in [1] was 2 µg/mL; in experiment [2] it was 4 µg/mL; in experiment [3], 2 µg/mL; in [4], 1 µg/mL; in experiment [5], 8 µg/mL; in [6], 1 µg/mL. Also, the MIC was determined as 1 µg/mL in experiment [7]; 1 µg/mL in experiment [8]; 0.5 µg/mL in [9]; 1 µg/mL in experiment [10]; 8 µg/mL in experiment [11]; 2 µg/mL in experiment [12]. Also, the MIC was found to be 0.5 µg/mL in [13]; 0.125 µg/mL in [14]; 0.125 µg/mL in [15]; 2 µg/mL in [16]; 1 µg/mL in experiment [17].

Take `C[n+]1cc(-c2ccccc2)c(/C=C/c2ccc(N3CCCC3)cc2)cc1-c1ccc2ccccc2c1.[I-]`: the MIC worked out at 1 µg/mL in [1]; 64 µg/mL in experiment [2]; 1 µg/mL in experiment [3]; 1 µg/mL in experiment [4]; 4 µg/mL in [5]; 2 µg/mL in experiment [6]. The minimal inhibitory concentration (MIC) in experiment [7] was 1 µg/mL; in experiment [8], 1 µg/mL; in experiment [9] it was 0.5 µg/mL; in experiment [10] it was 2 µg/mL; in [11], 16 µg/mL; in experiment [12], 2 µg/mL. For the same molecule, the MIC came to 0.5 µg/mL in experiment [13]; 1 µg/mL in [14]; 0.5 µg/mL in experiment [15]; 0.5 µg/mL in [16]; 2 µg/mL in [17].

For the molecule `CCc1ccc(/C=C/c2cc(-c3ccccc3)c[n+](C)c2-c2ccccc2)cc1.[I-]`, the MIC in [1] was 32 µg/mL; in experiment [2], greater than 64 µg/mL; in [3] it was 8 µg/mL; in experiment [4] it was 16 µg/mL; in [5] it was greater than 64 µg/mL; in experiment [6] it was 16 µg/mL. Besides, the MIC in [7] stood at 8 µg/mL; in experiment [8], 4 µg/mL; in experiment [9], 2 µg/mL; in experiment [10] it was 16 µg/mL; in experiment [11], 16 µg/mL; in [12] it was 16 µg/mL. The MIC in experiment [13] was determined as 8 µg/mL; in experiment [14], 4 µg/mL; in experiment [15] it was 1 µg/mL; in experiment [16], 4 µg/mL; in [17] it was 16 µg/mL.

For the molecule `NC(=O)c1c(F)ccc(OCc2nc3cc(Cl)cnc3s2)c1F`, the minimal inhibitory concentration (MIC) in [1], in [2], in experiment [3], in experiment [4], in experiment [5] and in experiment [6] was greater than 64 µg/mL each time. Moreover, the minimal inhibitory concentration (MIC) in [7] was 0.5 µg/mL (≈ 1.41 µM); in experiment [8] it was 2 µg/mL (≈ 5.62 µM); in experiment [9], 1 µg/mL (≈ 2.81 µM); in experiment [10] it was greater than 64 µg/mL; in [11], greater than 64 µg/mL; in experiment [12], greater than 64 µg/mL. In addition, the MIC in [13] is 1 µg/mL (≈ 2.81 µM); in experiment [14] it was 0.5 µg/mL (≈ 1.41 µM); in [15] it was 1 µg/mL (≈ 2.81 µM); in experiment [16], greater than 64 µg/mL; in experiment [17], greater than 64 µg/mL.

Regarding `CCCCCOc1ccc(/C=C/c2cc(-c3ccccc3)c[n+](C)c2-c2ccccc2)cc1.[I-]`, the MIC came out at 2 µg/mL in experiment [1]; 4 µg/mL in experiment [2]; 2 µg/mL in [3]; 2 µg/mL in experiment [4]; 4 µg/mL in [5]; 1 µg/mL in experiment [6]. The MIC in experiment [7] was 1 µg/mL; in experiment [8] it was 1 µg/mL; in experiment [9], 1 µg/mL; in experiment [10] it was 2 µg/mL; in experiment [11] it was 8 µg/mL; in experiment [12], 2 µg/mL. Moreover, the minimum inhibitory concentration (MIC) in experiment [13] was 1 µg/mL; in experiment [14] it was 0.5 µg/mL; in [15] it was 0.25 µg/mL; in experiment [16], 2 µg/mL; in experiment [17], 2 µg/mL.

For the molecule `CCCCCOc1ccc(/C=C/c2cc(-c3ccccc3)[n+](C)cc2-c2ccccc2)cc1.[I-]`, the minimal inhibitory concentration (MIC) in [1] came out at 2 µg/mL; in experiment [2] it was 4 µg/mL; in experiment [3] it was 2 µg/mL; in experiment [4] it was 0.5 µg/mL; in experiment [5], 2 µg/mL; in experiment [6], 1 µg/mL. For the same molecule, the minimum inhibitory concentration (MIC) in experiment [7] stood at 0.5 µg/mL; in experiment [8], 1 µg/mL; in [9] it was 0.5 µg/mL; in [10] it was 1 µg/mL; in [11] it was 4 µg/mL; in experiment [12], 2 µg/mL. Moreover, the MIC worked out at 1 µg/mL in experiment [13]; 0.5 µg/mL in [14]; 0.5 µg/mL in experiment [15]; 2 µg/mL in experiment [16]; 1 µg/mL in [17].

For the molecule `C[n+]1cc(-c2ccccc2)cc(/C=C/c2ccc(Cl)c(Cl)c2)c1-c1ccccc1.[I-]`, the MIC came to 2 µg/mL in experiment [1]; 64 µg/mL in experiment [2]; 2 µg/mL in [3]; 8 µg/mL in [4]; 64 µg/mL in experiment [5]; 8 µg/mL in experiment [6]. The MIC in [7] is 4 µg/mL; in experiment [8] it was 8 µg/mL; in experiment [9], 2 µg/mL; in experiment [10], 8 µg/mL; in [11], greater than 64 µg/mL; in experiment [12], 8 µg/mL. The MIC in [13] is 2 µg/mL; in experiment [14] it was 0.5 µg/mL; in [15], 0.5 µg/mL; in experiment [16] it was 2 µg/mL; in experiment [17], 8 µg/mL.

Regarding `CC[C@H]1OC(=O)[C@H](C)[C@@H](O[C@H]2C[C@@](C)(OC)[C@@H](O)[C@H](C)O2)[C@H](C)[C@@H](O[C@@H]2O[C@H](C)C[C@H](N(C)C)[C@H]2O)[C@](C)(O)C[C@@H](C)CN(C)[C@H](C)[C@@H](O)[C@]1(C)O` [AZITHROMYCIN], the minimal inhibitory concentration (MIC) in [1] is 2 µg/mL (≈ 2.67 µM); in experiment [2], 64 µg/mL (≈ 85.4 µM); in experiment [3], greater than 64 µg/mL; in [4], 8 µg/mL (≈ 10.7 µM); in experiment [5], greater than 64 µg/mL; in experiment [6] it was greater than 64 µg/mL. For the same molecule, the MIC in experiment [7] was 0.5 µg/mL (≈ 0.668 µM); in experiment [8] it was greater than 64 µg/mL; in experiment [9] it was greater than 64 µg/mL; in experiment [10] it was greater than 64 µg/mL; in experiment [11], 64 µg/mL (≈ 85.4 µM); in [12] it was 1 µg/mL (≈ 1.34 µM). The MIC is greater than 64 µg/mL in [13]; 0.25 µg/mL (≈ 0.334 µM) in [14]; 0.25 µg/mL (≈ 0.334 µM) in [15]; 0.03 µg/mL (≈ 0.0401 µM) in experiment [16]; greater than 64 µg/mL in [17].

As to `CCCOc1ccc(/C=C/c2cc(-c3ccccc3)c[n+](C)c2-c2ccccc2)cc1.[I-]`, the MIC in experiment [1] stood at 8 µg/mL; in experiment [2] it was 32 µg/mL; in experiment [3] it was 4 µg/mL; in [4], 8 µg/mL; in experiment [5] it was 64 µg/mL; in experiment [6], 4 µg/mL. Besides, the MIC is 4 µg/mL in [7]; 4 µg/mL in [8]; 0.5 µg/mL in experiment [9]; 8 µg/mL in experiment [10]; 8 µg/mL in [11]; 8 µg/mL in experiment [12]. The MIC in [13] came to 2 µg/mL; in experiment [14] it was 2 µg/mL; in experiment [15], 0.5 µg/mL; in experiment [16] it was 2 µg/mL; in experiment [17], 8 µg/mL.
